pIC50: −log10 of the molar value.
Target: human DGAT2 (Homo sapiens (Human), UniProt Q96PD7)
Experiment: Measurement of inhibitory effect against DGAT2 enzyme activity (SPA, Phospholipid FlashPlate, [14C]-TG production)
Format: biochemical
Details: recombinant human DGAT2 membrane protein from Sf-21 cells; inhibition of [14C]-TG production; 37° C.
Text: Experimental Example: Measurement of Inhibitory Effect Against DGAT2 Enzyme Activity
1. Preparation of DGAT2 Expression Vector
In order to prepare the pBacPAK9-DGAT2, which is DGAT2 expression vector, the human DGAT2 gene amplified by polymerase chain reaction (PCR) was cloned into the EcoR1 and Xho1 sites of the pBacPAK9 (clonctech) vector. The nucleotide sequence of the primers used in PCR was the forward primer 5′ […] and the reverse primer 5′ […]. The composition of the reaction solution was to contain 50 ng of cDNA clone (OriGene), 200 μM of dATP, dCTP, dTTP, dGTP, 200 nM of each primer, 1 unit of Tag DNA Polymerase (Toyobo), 1x PCR buffer, and the final volume was adjusted to 20 μl. The reaction conditions were denatured at 95° C. for 5 minutes, followed by 30 times of 94° C. for 20 seconds, 60° C. for 20 seconds, and 72° C. for 90 seconds, followed by further reaction at 72° C. for 7 minutes.
2. DGAT2 Expression and Preparation of Membrane Protein
Recombinant human DGAT2 protein was expressed in Sf-21 cells, which are insect cells, by using the BacPack baculovirus expression system (Clontech). The brief manufacturing process is as follows. First, the pBacPAK9-DGAT2 expression vector was transfected with BacPAK6 virus DNA (Bsu36I digest) into sf21 cells using Bacfectin to prepare a recombinant DGAT2 expressing baculovirus. The thus prepared baculovirus was infected with Sf-21 cells at 10 MOI (multiplicity of infection), and after 72 hours, infected insect cells were collected and membrane proteins were isolated. For membrane protein separation, the cell pellet was dissolved in a sucrose solution containing 250 mM sucrose, 10 mM Tris (pH 7.4), and 1 mM ethylenediamine-tetraacetic acid (EDTA), and then homogenized by using a dounce homogenizer, and the supernatant was taken by centrifuging at 600×g for 15 minutes, and centrifuged at 100,000×g for 1 hour to discard the supernatant, and the remaining pellet was resuspended in 20 mM HEPES buffer (pH 7.4). The prepared DGAT2 overexpressing membrane protein was dispensed in 100 μl and stored at −80° C. until use. Protein concentration was quantified by using the BCA Protein Assay Kit (Thermo Scientific).
3. Measurement of Inhibitory Effect Against DGAT2 Enzyme Activity
In vitro DGAT2 analysis was performed using a Phospholipid Flash Plate (PerkinElmer) based on the principle of SPA (Scintilation Proximity Assay). First, DGAT2 inhibition compounds serially diluted 5 times from 3 nM to 10 μM (final concentration, 1% DMSO) were mixed in a buffer solution containing 2 μg DGAT2-membrane protein and 20 mM HEPES, 20 mM MgCl2, 1 mg/mL BSA, 50 μM 1,2 sn-oleoyl glycerol (Sigma), put in a 96-well flash plate (FlashPlate) and reacted at 37° C. for 20 minutes, and then 1 μM [14C] ole oil CoA (PerkinElmer, NEC651050UC) was added to be a final volume of 100 μL and further reacted at 37° C. for 15 minutes. After the enzymatic reaction was completed, 100 μL of isopropanol was added, the plate was sealed with a film, and the plate was shaken slowly in a plate shaker. The next day, the amplified scintillation signal (cpm) in Topcounter (Packard) was measured to measure the degree of production of [14C]-labeled triacyl glycerol (TG) as a reaction product. The measured value when the compound was not treated was used as a positive control, and the measured value of the compound treated group was calculated as a relative % to measure the inhibition effect of the compound on TG production. The IC50 value, which is the concentration of the compound that inhibits TG production by 50%, was determined by treating the response value according to the compound concentration with a nonlinear regression curve using PRISM (Graphpad Inc.).

Chain of human DGAT2 (Q96PD7 whole entry): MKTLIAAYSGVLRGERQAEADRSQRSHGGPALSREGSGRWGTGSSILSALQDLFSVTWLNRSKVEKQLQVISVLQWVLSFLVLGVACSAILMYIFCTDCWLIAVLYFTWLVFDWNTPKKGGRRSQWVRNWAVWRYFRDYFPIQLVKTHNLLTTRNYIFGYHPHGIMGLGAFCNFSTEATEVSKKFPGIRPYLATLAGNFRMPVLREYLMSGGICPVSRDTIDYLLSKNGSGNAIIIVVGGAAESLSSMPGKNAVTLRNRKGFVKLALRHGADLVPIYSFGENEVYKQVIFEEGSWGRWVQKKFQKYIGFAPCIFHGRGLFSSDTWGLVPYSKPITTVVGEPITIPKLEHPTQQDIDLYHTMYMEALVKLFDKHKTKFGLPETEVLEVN

Row | Compound | pIC50
1 | CCOc1ccccc1Oc1cncc(-c2cncc(NC(=O)CCc3ccccc3)n2)c1 [Example 1, N-(6-(5-(2-ethoxyphenoxy)pyridin-3-yl)pyrazin-2-yl)-3-phenylpropanamide] | 7.46
2 | CCOc1ccccc1Oc1cncc(-c2cncc(NC(=O)Cc3ccc(CC(=O)OC)cc3)n2)c1 [Example 2, methyl 2-(4-(2-((6-(5-(2-ethoxyphenoxy)pyridin-3-yl)pyrazin-2-yl)amino)-2-oxoethyl)phenyl)acetate] | 7.57
3 | CCOc1ccccc1Oc1cncc(-c2cncc(NC(=O)Cc3ccc(CC(=O)O)cc3)n2)c1 [Example 3, 2-(4-(2-((6-(5-(2-ethoxyphenoxy)pyridin-3-yl)pyrazin-2-yl)amino)-2-oxoethyl)phenyl)acetic acid] | 5.47
4 | CCOc1ccccc1Oc1cncc(-c2cncc(NC(=O)CCc3ccc(CC(=O)O)cc3)n2)c1 [Example 4, 2-(4-(3-((6-(5-(2-ethoxyphenoxy)pyridin-3-yl)pyrazin-2-yl)amino)-3-oxopropyl)phenyl)acetic acid] | 6.54
5 | CCOc1ccccc1Oc1cncc(-c2cncc(NC(=O)CCc3ccc(C(C)(C)C(=O)OC)cc3)n2)c1 [Example 5, methyl 2-(4-(3-((6-(5-(2-ethoxyphenoxy)pyridin-3-yl)pyrazin-2-yl)amino)-3-oxopropyl)phenyl)-2-methylpropanoate] | 7.96
6 | CCOc1ccccc1Oc1cncc(-c2cncc(NC(=O)Cc3ccc(CC(C)(C)C(=O)O)cc3)n2)c1 [Example 7, 3-(4-(2-((6-(5-(2-ethoxyphenoxy)pyridin-3-yl)pyrazin-2-yl)amino)-2-oxoethyl)phenyl)-2,2-dimethylpropanoic acid] | 7.44
7 | CCOc1ccccc1Oc1cncc(-c2cncc(Nc3nccc(N4CCC[C@@H](C(=O)O)C4)n3)n2)c1 [Example 8, (R)-1-(2-((6-(5-(2-ethoxyphenoxy)pyridin-3-yl)pyrazin-2-yl)amino)pyrimidin-4-yl)piperidine-3-carboxylic acid] | 5.74
8 | CCOc1ccccc1Oc1cncc(-c2cncc(Nc3cccc(-c4cccc(CC(C)(C)C(=O)O)c4)n3)n2)c1 [Example 9, 3-(3-(6-((6-(5-(2-ethoxyphenoxy)pyridin-3-yl)pyrazin-2-yl)amino)pyridin-2-yl)phenyl)-2,2-dimethylpropanoic acid] | 6.80
9 | CCOc1ccccc1Oc1cccc(-c2cncc(NC(=O)CCc3ccc(OC(C)(C)C(=O)O)cc3)n2)c1 [Example 13, 2-(4-(3-((6-(3-(2-ethoxyphenoxy)phenyl)pyrazin-2-yl)amino)-3-oxopropyl)phenoxy)-2-methylpropanoic acid] | 6.48
10 | CCOc1ccccc1Oc1cccc(-c2cncc(NC(=O)Cc3ccc(CC(C)(C)C(=O)O)cc3)n2)c1 [Example 15, 3-(4-(2-((6-(3-(2-ethoxyphenoxy)phenyl)pyrazin-2-yl)amino)-2-oxoethyl)phenyl)-2,2-dimethylpropanoic acid] | 7.89
11 | CCOc1ccccc1Oc1cccc(-c2cncc(NC(=O)C(C)(C)c3ccc(CC(C)(C)C(=O)O)cc3)n2)c1 [Example 18, 3-(4-(1-((6-(3-(2-ethoxyphenoxy)phenyl)pyrazin-2-yl)amino)-2-methyl-1-oxopropan-2-yl)phenyl)-2,2-dimethylpropanoic acid] | 7.66
12 | CCOc1ccccc1Oc1cccc(-c2cncc(NC(=O)Cc3ccc(OC(C)(C)C(=O)O)cc3)n2)c1 [Example 19] | 6.37
13 | CCOc1ccccc1Oc1cccc(-c2cncc(Nc3nccc(-c4ccc(CC(=O)O)cc4)n3)n2)c1 [Example 20, 2-(4-(2-((6-(3-(2-ethoxyphenoxy)phenyl)pyrazin-2-yl)amino)pyrimidin-4-yl)phenyl)acetic acid] | 5.41
14 | CCOc1ccccc1Oc1cccc(-c2cncc(Nc3nccc(O[C@H]4CC[C@H](C(=O)O)CC4)n3)n2)c1 [Example 21, (1r,4r)-4-((2-((6-(3-(2-ethoxyphenoxy)phenyl)pyrazin-2-yl)amino)pyrimidin-4-yl)oxy)cyclohexane-1-carboxylic acid] | 5.92
15 | CCOc1ccccc1Oc1cccc(-c2cncc(NC(=O)CCc3ccccc3)n2)n1 [Example 22, N-(6-(6-(2-ethoxyphenoxy)pyridin-2-yl)pyrazin-2-yl)-3-phenylpropanamide] | 5.68
16 | CCOc1ccccc1Oc1cccc(-c2cncc(NC(=O)Cc3ccc(CC(C)(C)C(=O)O)cc3)n2)n1 [Example 23, 3-(4-(2-((6-(6-(2-ethoxyphenoxy)pyridin-2-yl)pyrazin-2-yl)amino)-2-oxoethyl)phenyl)-2,2-dimethylpropanoic acid] | 7.21
17 | CCOc1ccccc1Oc1cccc(-c2cncc(Nc3nccc(N4CCC[C@@H](C(=O)O)C4)n3)n2)n1 [Example 24, (R)-1-(2-((6-(6-(2-ethoxyphenoxy)pyridin-2-yl)pyrazin-2-yl)amino)pyrimidin-4-yl)piperidine-3-carboxylic acid] | 5.13
18 | CCOc1ccccc1Oc1cccc(-c2cncc(Nc3cccc(-c4cccc(CC(C)(C)C(=O)O)c4)n3)n2)n1 [Example 25, 3-(3-(6-((6-(6-(2-ethoxyphenoxy)pyridin-2-yl)pyrazin-2-yl)amino)pyridin-2-yl)phenyl)-2,2-dimethylpropanoic acid] | 6.35
19 | CCOc1cccnc1Oc1cccc(-c2cncc(NC(=O)CCc3ccc(C(C)(C)C(=O)O)cc3)n2)c1 [Example 26, 2-(4-(3-((6-(3-((3-ethoxypyridin-2-yl)oxy)phenyl)pyrazin-2-yl)amino)-3-oxopropyl)phenyl)-2-methylpropanoic acid] | 7.68
20 | CCOc1cccnc1Oc1cccc(-c2cncc(NC(=O)Cc3ccc(CC(C)(C)C(=O)O)cc3)n2)c1 [Example 27, 3-(4-(2-((6-(3-((3-ethoxypyridin-2-yl)oxy)phenyl)pyrazin-2-yl)amino)-2-oxoethyl)phenyl)-2,2-dimethylpropanoic acid] | 8.13
21 | CCOc1cccnc1Oc1cccc(-c2cncc(NC(=O)CCc3ccc(OC(C)(C)C(=O)O)cc3)n2)c1 [Example 28, 2-(4-(3-((6-(3-((3-ethoxypyridin-2-yl)oxy)phenyl)pyrazin-2-yl)amino)-3-oxopropyl)phenoxy)-2-methylpropanoic acid] | 6.68
22 | CCOc1cccnc1Oc1cccc(-c2cncc(NC(=O)C(C)(C)c3ccc(CC(C)(C)C(=O)O)cc3)n2)c1 [Example 29, 3-(4-(1-((6-(3-((3-ethoxypyridin-2-yl)oxy)phenyl)pyrazin-2-yl)amino)-2-methyl-1-oxopropane-2-yl)phenyl)-2,2-dimethylpropanoic acid] | 8.17
23 | CCOc1cccnc1Oc1cccc(-c2cncc(Nc3nccc(N4CCC[C@@H](C(=O)O)C4)n3)n2)c1 [Example 31, (R)-1-(2-((6-(3-((3-ethoxypyridin-2-yl)oxy)pheny)pyrazin-2-yl)amino)pyrimidin-4-yl)piperidine-3-carboxylic acid] | 5.04
24 | CCOc1cccnc1Oc1cccc(-c2cncc(Nc3cccc(-c4cccc(CC(C)(C)C(=O)O)c4)n3)n2)c1 [Example 32, 3-(3-(6-((6-(3-((3-ethoxypyridin-2-yl)oxy)phenyl)pyrazin-2-yl)amino)pyridin-2-yl)phenyl)-2,2-dimethylpropanoic acid] | 7.15
25 | CCOc1cccnc1Oc1cccc(-c2cncc(Nc3nccc(O[C@H]4CC[C@H](C(=O)O)CC4)n3)n2)c1 [Example 33, (1r,4r)-4-((2-((6-(3-((3-ethoxypyridin-2-yl)oxy)phenyl)pyrazin-2-yl)amino)pyrimidin-4-yl)oxy)cyclohexane-1-carboxylic acid] | 5.47

Reference: patent US20230322706A1, “NOVEL BIARYL DERIVATIVE USEFUL AS DIACYLGLYCEROL ACYLTRANSFERASE 2 INHIBITOR, AND USE THEREOF” (LG CHEM, LTD., priority 2020, published 2023)
